Test results from PubChem BioAssay (NCI).
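Assay format: 96-well plates, 48-hour exposure. At the TGI there is no net growth.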

Legend:
Assay in all cases: NCI tumour cell line growth inhibition, 48 h
LOX IMVI melanoma = tested on: LOX IMVI melanoma
MCF7 breast = tested on: MCF7 breast
HT29 colon = tested on: HT29 colon
SR leukemia = tested on: SR leukemia
T-47D breast = tested on: T-47D breast
SNB-19 CNS = tested on: SNB-19 CNS
HCT-15 colon = tested on: HCT-15 colon
UO-31 renal = tested on: UO-31 renal
HL-60(TB) leukemia = tested on: HL-60(TB) leukemia
IGROV1 ovarian = tested on: IGROV1 ovarian
SK-MEL-28 melanoma = tested on: SK-MEL-28 melanoma

Compound | TGI (LOX IMVI melanoma) [µM] | TGI (MCF7 breast) [µM] | TGI (HT29 colon) [µM] | TGI (SR leukemia) [µM] | TGI (T-47D breast) [µM] | TGI (SNB-19 CNS) [µM] | TGI (HCT-15 colon) [µM] | TGI (UO-31 renal) [µM] | TGI (HL-60(TB) leukemia) [µM] | TGI (IGROV1 ovarian) [µM] | TGI (SK-MEL-28 melanoma) [µM]
Cc1ncn(-c2ccccc2O)c1C | > 100 | > 100 | > 100 | > 100 | > 100 | > 100 | > 100 | > 100 | > 100 | > 100 | > 100
NS(=O)(=O)c1ccc(NC(=O)N/N=C/c2ccccc2[N+](=O)[O-])cc1 | > 100 | > 100 | > 100 | > 100 | > 100 | > 100 | > 100 | > 100 | > 100 | > 100 | > 100
Cc1nc(OCc2ccccc2)c2ncn(CCO)c2n1 | > 100 | > 100 | > 100 | > 100 | – | > 100 | – | > 100 | > 100 | > 100 | > 100
COC1OC2COC1(OCc1ccccc1)C1OC(C)(C)OC21 (stereo not drawn) | – | > 100 | > 100 | > 100 | > 100 | > 100 | > 100 | > 100 | – | > 100 | > 100
Nc1ncnc2c1ncn2[C@H]1C=C[C@@H](NO)C1 | > 100 | > 100 | – | > 100 | > 100 | > 100 | > 100 | > 100 | – | > 100 | > 100
CC1C(C)(C)C23CC12C1(OCCO1)C3Br (stereo not drawn) | > 100 | > 100 | > 100 | > 100 | – | > 100 | > 100 | > 100 | > 100 | > 100 | > 100
S=C(NCc1ccccc1)Nc1sc(=NCc2ccccc2)nc2sc3c(c12)CCN(N1CCc2c(sc4nc(=NCc5ccccc5)sc(NC(=S)NCc5ccccc5)c24)C1)C3 | > 100 | > 62.2 | 43.3 | – | > 61.3 | > 64.2 | > 66.7 | > 60.8 | 42.4 | > 100 | > 79
CCCn1cc2c(=O)[nH]c(SC)nc2n1 | > 100 | – | > 100 | > 100 | – | > 100 | > 100 | > 100 | > 100 | > 100 | > 100
Cc1ccc2c(c1)nc1n2C(c2c(F)cccc2F)SC1 (stereo not drawn) | > 100 | > 100 | > 100 | 87.9 | > 100 | > 100 | 82.4 | > 100 | – | > 100 | > 100
C=C1C2CCC3C4(C)CCCC(C)(C(=O)O)C4CCC3(C2)C1OC(=O)/C(C)=C/C (stereo not drawn) | > 100 | 70.8 | > 100 | 9.55 | > 100 | – | 61.6 | 52.9 | 56.7 | > 100 | > 100
O=C(OC1=CCN(Br)C1=O)C1=C(O)C(=O)N(Br)C1 | 54 | > 100 | – | 52.3 | 45.2 | 43.6 | > 100 | > 100 | 52.2 | > 100 | 41.4
COC(NC(=O)Nc1ccc(C)cc1)(C(F)(F)F)C(F)(F)F | > 100 | > 100 | > 100 | > 100 | 97.7 | 87.2 | – | 53.6 | > 100 | > 100 | > 100
CCCCSC1=N/C(=C\c2ccccc2O)C(=O)N1 | > 100 | > 100 | > 100 | – | > 100 | > 100 | > 100 | > 100 | > 100 | > 100 | > 100
C=C(/C=C/C=C(\C)CCC=C(C)C)[C@@H]1CC[C@]2([C@H](CCCO)/C(=C(/C)C=O)CC[C@]2(C)O)[C@@H]1O | 31.9 | – | 30.9 | 40.9 | – | 52.7 | 34.2 | 48 | 35.4 | 81.1 | 28.4
CCOC(=O)C12CCC(=O)N1N(C)c1ncccc1N2 (stereo not drawn) | > 100 | > 100 | > 100 | > 100 | > 100 | > 100 | > 100 | > 100 | – | > 100 | > 100
NCC(=O)Nc1ccccc1 | > 100 | – | > 100 | > 100 | > 100 | > 100 | > 100 | > 100 | – | > 100 | > 100
C[C@H](Nc1nc(N)c(N=O)c(=O)n1C)C(=O)O | > 10 | > 10 | > 10 | > 10 | > 10 | > 10 | > 10 | – | > 10 | > 10 | > 10
COc1ccc(C(=O)/C=C/c2ccc(OCCCCCCCCCCOc3ccc(/C=C/C(=O)c4ccc(OC)cc4)cc3)cc2)cc1 | – | > 100 | > 100 | > 100 | > 100 | > 100 | > 100 | > 100 | > 100 | > 100 | > 100
Cc1cn(C2CC(n3cc(Cn4ccc(=O)[nH]c4=O)nn3)C(CO)O2)c(=O)[nH]c1=O (stereo not drawn) | – | > 100 | – | – | > 100 | > 100 | > 100 | > 100 | > 100 | – | > 100
Cc1ccc(S(=O)(=O)n2cc(C=O)c(-c3cn(S(=O)(=O)c4ccc(C)cc4)cc3-c3cn(S(=O)(=O)c4ccc(C)cc4)cc3C=O)c2)cc1 | 74.4 | 87.2 | > 100 | > 100 | > 100 | > 100 | > 100 | > 100 | > 100 | > 100 | –
